Results published in patent publication US9845319B2, “Amide substituted thiazoles as modulators of RORyt” (Janssen Pharmaceutica NV, priority 2014, dated 2017).
Like-named read-outs stand apart in the source and are kept apart here.

Key:
[1] = tested on: IL-17 production by CD4 T cells; assay: Human Th17 Assay; assay type: cell-based; settings: 72 h, read-out: Human Th17 Assay, IC50
Protocol: The human Th17 assay tests the effect of RORγt modulatory compounds on IL-17 production by CD4 T cells under conditions which favor Th17 differentiation. Total CD4^+ T cells were isolated from the peripheral blood mononuclear cells (PBMC) of healthy donors using a CD4^+ T cell isolation kit II, following the manufacturer's instructions (Miltenyi Biotec). […] 50 μL of compound at titrated concentrations in DMSO were added into each well at final DMSO concentration at 0.2%. Cells were incubated for 1 hour, then 50 μL of Th17 cell differentiation medium was added to each well. The final concentrations of antibodies and cytokines (R&D Systems) in differentiation medium were: 3×10^6/mL anti-CD3/CD28 beads (prepared using human T cell activation/expansion kit, Miltenyi Biotec), 10 μg/mL anti-IL4, 10 μg/mL anti-IFNγ, 10 ng/mL IL1β, 10 ng/mL IL23, 50 ng/mL IL6, 3 ng/mL TGFβ and 20 U/mL IL2. Cells were cultured at 37° C. and 5% CO2 for 3 days. Supernatants were collected and the accumulated IL-17 in culture was measured by using MULTI-SPOT® Cytokine Plate following manufacture's instruction (Meso Scale Discovery). The plate was read using Sector Imager 6000, and IL-17 concentration was extrapolated from the standard curve. The IC50s were determined by GraphPad.

[2] = target: T1, full-length human RORγt (Homo sapiens, UniProt P51449); assay: RORγt (full-length human) Reporter Assay, Conditions A; assay type: cell-based; settings: for IC50: HEK293T cells, GAL4-DBD-RORγt, luciferase, read-out: RORγt (FL) Reporter Assay A, IC50; for inhibition at 6 µM: read-out: RORγt (FL) Reporter Assay A, % inhibition @ 6 μM, 6 μM compound
T1 construct: expressed in transfected cells; host or cells: HEK293T, transiently transfected with pCMV-BD-ROR
T1 sequence (P51449 1-497 isoform P51449-2): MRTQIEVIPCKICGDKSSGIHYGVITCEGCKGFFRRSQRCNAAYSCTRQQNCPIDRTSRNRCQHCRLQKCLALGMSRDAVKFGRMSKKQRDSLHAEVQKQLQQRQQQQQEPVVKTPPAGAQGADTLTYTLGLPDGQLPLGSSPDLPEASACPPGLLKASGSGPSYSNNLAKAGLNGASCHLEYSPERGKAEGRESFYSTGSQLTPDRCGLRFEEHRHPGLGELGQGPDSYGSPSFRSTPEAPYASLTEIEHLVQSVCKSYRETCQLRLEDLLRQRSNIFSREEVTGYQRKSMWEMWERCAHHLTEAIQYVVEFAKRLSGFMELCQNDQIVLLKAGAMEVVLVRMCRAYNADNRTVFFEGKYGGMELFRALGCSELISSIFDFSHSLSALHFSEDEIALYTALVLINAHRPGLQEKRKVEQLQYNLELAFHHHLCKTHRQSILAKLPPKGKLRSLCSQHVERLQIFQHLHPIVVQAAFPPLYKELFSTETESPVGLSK
In short: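 Dual-luciferase readout after overnight (16 to 20 hours) treatment: firefly values scaled between DMSO-only and saturating reference-compound controls, then corrected by Renilla. Percent inhibition calculated against DMSO control, with IC50 derived from concentration-response plots.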

[3] = target: T2, human RORγt ligand binding domain (RORγt LBD) (Homo sapiens, UniProt P51449); assay: RORγt ThermoFluor assay; settings: estimated from thermal shift concentration response
T2 construct: His-tag (N); TurboTEV protease cleavage site (ENLYFQG) (N); made in house; host or cells: E. coli (pHIS1, a modified pET expression vector)
T2 sequence (P51449 with tags, fused parts or gaps): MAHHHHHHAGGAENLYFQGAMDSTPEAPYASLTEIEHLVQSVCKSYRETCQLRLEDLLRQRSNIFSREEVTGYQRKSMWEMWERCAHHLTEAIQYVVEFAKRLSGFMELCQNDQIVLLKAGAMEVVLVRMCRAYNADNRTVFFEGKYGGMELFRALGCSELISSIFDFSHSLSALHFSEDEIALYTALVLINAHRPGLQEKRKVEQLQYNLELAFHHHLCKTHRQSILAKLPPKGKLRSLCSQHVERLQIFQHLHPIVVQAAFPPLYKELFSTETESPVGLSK
In short: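 Thermal shift of RORγt LBD (0.065 mg/mL) with 60 μM 1,8-ANS in 100 mM Hepes pH 7.0, NaCl, GSH, 0.002% Tween-20, heated at 1° C/min. ANS fluorescence tracked versus temperature; ΔTm relative to DMSO wells. Compounds serially diluted 1:2 from 10 mM DMSO stock.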

[4] = IL-17 in supernatant, 3 days, human CD4+ T cells

| SMILES | IC50 ([1]; Homo sapiens, CD4+ T) [nM] | IC50 [2] [nM] | inhibition at 6 µM [2] [%] | Kd [3] [nM] | IC50 [1, 4] [nM] | inhibition at 2 µM ([2]; read-out: RORγt (FL) Reporter Assay A, % inhibition (* at 2 μM), 2 μM compound concentration (footnote *)) [%] | inhibition at 0.67 µM ([2]; 0.67 μM compound concentration, read-out: RORγt (FL) Reporter Assay A, % inhibition (** at 0.67 μM)) [%] |
| --- | --- | --- | --- | --- | --- | --- | --- |
| C[C@H](NS(=O)(=O)c1ccc(-c2sc(-c3nnc(C(C)(C)O)o3)nc2C(=O)N2CCC(F)(F)CC2)c(Cl)c1Cl)C(F)(F)F [Example 4/4, (S)-2,3-Dichloro-4-(4-(4,4-difluoropiperidine-1-carbonyl)-2-(5-(2-hydroxypropan-2-yl)-1,3,4-oxadiazol-2-yl)thiazol-5-yl)-N-(1,1,1-trifluoropropan-2-yl)benzenesulfonamide] | 15 |  |  |  |  |  |  |
| CC[C@H](NS(=O)(=O)c1ccc(-c2sc(-c3nnn[nH]3)nc2C(=O)N2CCCC[C@@H]2C)c(Cl)c1Cl)C(F)(F)F [Example 15, 2,3-Dichloro-4-(4-((S)-2-methylpiperidine-1-carbonyl)-2-(1H-tetrazol-5-yl)thiazol-5-yl)-N—((S)-1,1,1-trifluorobutan-2-yl)benzenesulfonamide] |  | 1900 | 59 | 0.64 | 6000 |  |  |
| CCN(CC)C(=O)c1nc(-c2nnc(CC(C)(C)C(=O)O)o2)sc1-c1ccc(S(=O)(=O)N[C@@H](C)C(F)(F)F)c(Cl)c1Cl [Example 1, (S)-3-(5-(5-(2,3-Dichloro-4-(N-(1,1,1-trifluoropropan-2-yl)sulfamoyl)phenyl)-4-(diethylcarbamoyl)thiazol-2-yl)-1,3,4-oxadiazol-2-yl)-2,2-dimethylpropanoic acid] |  | 1100 | 89 | 1.3 | 54 |  |  |
| CC[C@H](NS(=O)(=O)c1ccc(-c2sc(-c3cccc(CC(C)(C)C(=O)O)n3)nc2C(=O)N2CCC(F)(F)CC2)c(C(F)F)c1F)C(F)(F)F [Example 19, (S)-3-(6-(5-(2-(Difluoromethyl)-3-fluoro-4-(N-(1,1,1-trifluorobutan-2-yl)sulfamoyl)phenyl)-4-(4,4-difluoropiperidine-1-carbonyl)thiazol-2-yl)pyridin-2-yl)-2,2-dimethylpropanoic acid] |  | 8 |  | 0.013 | 9 | 99 |  |
| C[C@H](NS(=O)(=O)c1ccc(-c2sc(-c3nnc(C(C)(C)O)o3)nc2C(=O)N2CCOC[C@@H]2C)c(Cl)c1Cl)C(F)(F)F [Example 6/9, 2,3-Dichloro-4-(2-(5-(2-hydroxypropan-2-yl)-1,3,4-oxadiazol-2-yl)-4-((S)-3-methylmorpholine-4-carbonyl)thiazol-5-yl)-N—((S)-1,1,1-trifluoropropan-2-yl)benzenesulfonamide] |  | 110 | 108 | 6.5 | 100 |  |  |
| CC(C)(O)c1nnc(-c2nc(C(=O)N3CCC(F)(F)CC3)c(-c3ccc(C(O)C4(C(F)(F)F)CC4)c(Cl)c3Cl)s2)o1 (centres unmarked) [Example 8/4, (5-(2,3-Dichloro-4-(hydroxy(1-(trifluoromethyl)cyclopropyl)methyl)phenyl)-2-(5-(2-hydroxypropan-2-yl)-1,3,4-oxadiazol-2-yl)thiazol-4-yl)(4,4-difluoropiperidin-1-yl)methanone] |  | 320 | 47 | 12 | ~6000 |  |  |
| C[C@H](NS(=O)(=O)c1ccc(-c2sc(-c3cc(CC(C)(C)C(=O)O)on3)nc2C(=O)N2CCC(F)(F)CC2)c(C(F)F)c1F)C(F)(F)F [Example 18, (S)-3-(3-(5-(2-(Difluoromethyl)-3-fluoro-4-(N-(1,1,1-trifluoropropan-2-yl)sulfamoyl)phenyl)-4-(4,4-difluoropiperidine-1-carbonyl)thiazol-2-yl)isoxazol-5-yl)-2,2-dimethylpropanoic acid] |  | 350 | 103 | 3.7 | 410 |  |  |
| CC[C@H](NS(=O)(=O)c1ccc(-c2sc(-c3noc(CC(C)(C)C(=O)O)n3)nc2C(=O)N2CCC(F)(F)CC2)c(OC(F)(F)F)c1)C(F)(F)F [Example 10/2, (S)-3-(3-(4-(4,4-Difluoropiperidine-1-carbonyl)-5-(4-(N-(1,1,1-trifluorobutan-2-yl)sulfamoyl)-2-(trifluoromethoxy)phenyl)thiazol-2-yl)-1,2,4-oxadiazol-5-yl)-2,2-dimethylpropanoic acid] |  | 57 | 106 | 0.04 | 76 |  |  |
| CCN(CC)C(=O)c1nc(-c2cc(C(C)(C)O)ncn2)sc1-c1ccc(S(=O)(=O)N[C@@H](C)C(F)(F)F)c(Cl)c1Cl [Example 17/2, (S)-5-(2,3-Dichloro-4-(N-(1,1,1-trifluoropropan-2-yl)sulfamoyl)phenyl)-N,N-diethyl-2-(6-(2-hydroxypropan-2-yl)pyrimidin-4-yl)thiazole-4-carboxamide] |  | 31 |  | 2.8 |  |  | 106 |
| CCN(CC(F)(F)F)C(=O)c1nc(-c2nnc(C(C)(C)O)o2)sc1-c1ccc(S(=O)(=O)N[C@@H](C)C(F)(F)F)c(Cl)c1Cl [Example 4/6, (S)-5-(2,3-Dichloro-4-(N-(1,1,1-trifluoropropan-2-yl)sulfamoyl)phenyl)-N-ethyl-2-(5-(2-hydroxypropan-2-yl)-1,3,4-oxadiazol-2-yl)-N-(2,2,2-trifluoroethyl)thiazole-4-carboxamide] |  | 23 | 101 | 6.3 |  |  |  |
| C[C@H](NS(=O)(=O)c1ccc(-c2sc(-c3nnc(C(C)(C)O)o3)nc2C(=O)N2CC(F)C[C@@H]2C)c(C(F)F)c1F)C(F)(F)F (stereo partly drawn) [Example 6/21, 3-(Difluoromethyl)-2-fluoro-4-(4-((2S)-4-fluoro-2-methylpyrrolidine-1-carbonyl)-2-(5-(2-hydroxypropan-2-yl)-1,3,4-oxadiazol-2-yl)thiazol-5-yl)-N—((S)-1,1,1-trifluoropropan-2-yl)benzenesulfonamide] |  | 410 | 102 | 270 |  |  |  |
| CCCN(CC)C(=O)c1nc(-c2nnc(C(C)(C)O)o2)sc1-c1ccc(S(=O)(=O)N[C@@H](C)C(F)(F)F)c(Cl)c1Cl [Example 6/8, (S)-5-(2,3-Dichloro-4-(N-(1,1,1-trifluoropropan-2-yl)sulfamoyl)phenyl)-N-ethyl-2-(5-(2-hydroxypropan-2-yl)-1,3,4-oxadiazol-2-yl)-N-propylthiazole-4-carboxamide] |  | 30 | 108 | 4.5 |  |  |  |
| CC[C@H](NS(=O)(=O)c1ccc(-c2sc(-c3nnc(C(C)(C)O)o3)nc2C(=O)N2CCC(F)CC2)c(Cl)c1)C(F)(F)F [Example 6/11, (S)-3-Chloro-4-(4-(4-fluoropiperidine-1-carbonyl)-2-(5-(2-hydroxypropan-2-yl)-1,3,4-oxadiazol-2-yl)thiazol-5-yl)-N-(1,1,1-trifluorobutan-2-yl)benzenesulfonamide] |  | 69 | 104 | 9.3 |  |  |  |
